Measured values published in patent US20250008959A1, “HERBICIDES AND USE THEREOF” (Projini Agchem LTD, priority 2021, published 2025).

How the values were obtained:
[1] = target: T1, OASS-SAT complex (AtOASS with SAT-derived peptide) (Arabidopsis thaliana, UniProt P47998); test: Fluorescence polarization (FP) competition with FITC-labeled SAT-derived peptide bound to OASS; assay type: binding; settings: competition with FITC-SAT peptide 200 nM, OASS 2.2 μM; for IC50: single site inhibition model
T1 construct: GST (N, cleaved yes); made in house; host or cells: E. coli Rosetta (DE3)
Protocol: Molecules were also tested for their ability to compete with the OASS binding to the SAT-derived peptide via a fluorescence polarization (FP) competition assay wherein the N-terminus labeled peptide was incubated with the AtOASS (see Examples section below). High FP values correspond to the peptide-bound state (low molecule concentrations) and low FP values correspond to the peptide-free state (low FP values). To extract the IC50, the FP data were fitted to a single site inhibition model in PRISM by GraphPad Software. The corresponding IC50 values were extracted, whereas low IC50 values correspond to molecule that better competes with the peptide binding to AtOASS. Fluorescence polarization (FP) measurements were made on samples arrayed in 96-well plates by using BioTek H1 Synergy instrument equipped with FP module. […] The peptide in a concentration of 200 nM was incubated with OASS at a concentration of 2.2 μM in each well. Variable concentrations of each molecule starting from 100 μM down to 0.048 μM were added to evaluate the ability of each molecule to compete off the FITC labeled peptide bound to OASS. Fluorescence experiments were executed with an Em/Exc wavelengths of 480/520 nm. All measurements were done in triplicate. Experimental polarization data from simple and competitive binding experiments were fitted using GraphPad Prism, with error bars representing SD. Molecules were also tested for their ability to compete with the OASS binding to the SAT-derived peptide via a fluorescence polarization (FP) competition assay. The N-terminus labeled peptide was incubated with the AtOASS in each of the wells in a 96-well plate. Various concentrations of the molecules were added and the FP values were recorded. High FP values correspond to the peptide-bound state (low molecule concentrations) and low FP values correspond to the peptide-free state (low FP values). To extract the IC50, the FP data were fitted to a single site inhibition model in graphpad prism. The corresponding IC50 values were extracted. Low IC50 values correspond to molecule that better competes with the peptide binding to AtOASS.

[2] = target: T2, AtOASS (O-acetyl serine sulfhydrylase from Arabidopsis thaliana) (Arabidopsis thaliana, UniProt P47998); test: Isothermal titration calorimetry (ITC) binding to OASS; settings: for Kd: OASS titrated into compound in ITC cell, single binding model
T2 construct: GST (N, cleaved yes); made in house; host or cells: E. coli Rosetta (DE3)
Text: To evaluate the ability of the molecules to bind AtOASS (O-acetyl serine sulfhydrylase from Arabidopsis thaliana), the protein was placed in the ITC syringe and was titrated with the molecules that were placed in the ITC cell (see Examples section below). The direct dissociation binding constant (Kd) was then extracted from the binding curve using a single binding model, wherein a low Kd value corresponds to a stronger binding affinity.
To evaluate the binding of the small molecules to the enzyme OASS, the purified protein was placed in a 6-8 MWCO dialysis bag in 30 mM phosphate buffer, 30 mM NaCl, 1 mM TCEP, and 5% dimethyl sulfoxide. Sequential buffer exchange dialyses were executed for 12 hours each at 4° C. until dilution of >10,000 was achieved. Before the execution of the ITC binding experiment, the OASS was placed in the ITC syringe at a concentration of 400 μM and each of the small molecules was dissolved in the same dialysis buffer to a final concentration of 40 μM in the ITC cell. ITC experiments were conducted by titrating the OASS to the compounds in the cell. The ITC binding constant was evaluated using the build-in analysis software.
The designed de-novo herbicidal compounds were synthesized and evaluated for their in vitro and in planta activity. After dissolving the molecules to a stock of 50 mM in DMSO, binding and competition with the SAT-derived peptides were evaluated using ITC and FP. ITC measures the direct heat change occurring due to the interaction of a pair of molecules. ITC has certain advantages, such as the capability to detect a relatively broad range of binding affinities, being a label-free method, and providing a wide set of interaction parameters, such as affinity, stoichiometry, enthalpy, and entropy of binding. To evaluate the ability of the molecules to bind AtOASS, the protein was placed in the ITC syringe and was titrated with the molecules that were placed in the ITC cell. The direct dissociation binding constant (Kd) was then extracted from the binding curve using a single binding model. Two consecutive experiments were combined using the built in ITC module to enable better quantification. A low Kd value corresponds to a stronger binding affinity.

[3] = system: Arabidopsis thaliana; test: Root elongation in plates (in planta root elongation assay); assay type: in vivo; settings: 168 h, A. thaliana on MS medium plates, 7 days, read-out: Root-growth inhibition %
Protocol: 6-well plates were prepared in a biological hood with sterile half Murashige and Skoog mineral medium (MS; Duchefa, Haarlem, Netherlands) containing 1% sucrose (w/v), pH 5.8. Tested molecules were dissolved in 50 mM DMSO and diluted to various concentrations 1,000-fold greater than the final desired concentration the MS medium maintaining a final concentration of 0.1% DMSO. MS medium with 0.1% DMSO was used as a negative control. After 7 days the plates were scanned and the root length was calculated using the imageJ software. […] Further sterilization was done by washing the seeds with 50% hypochlorite and 0.2% Triton x-100 for 10 minutes followed by five cycles of washing with sterile water. Six seeds were placed in each well, and the plates were covered and sealed with parafilm. Plates were placed vertically at 4° C. for two days and then transferred to a growth chamber for seven days (22-24° C.) at day/light cycles of 16/8 hours. Following the in vitro evaluation, selected molecules were tested for their ability to inhibit A. thaliana root elongation on agar plates. Seeds were plated on medium containing the molecules dissolved in the indicated concentrations and root length was measured after 6 or 7 days when the root in the non-treated plate reached the end of the well.

T1 sequence (P47998 whole entry, one chain of several): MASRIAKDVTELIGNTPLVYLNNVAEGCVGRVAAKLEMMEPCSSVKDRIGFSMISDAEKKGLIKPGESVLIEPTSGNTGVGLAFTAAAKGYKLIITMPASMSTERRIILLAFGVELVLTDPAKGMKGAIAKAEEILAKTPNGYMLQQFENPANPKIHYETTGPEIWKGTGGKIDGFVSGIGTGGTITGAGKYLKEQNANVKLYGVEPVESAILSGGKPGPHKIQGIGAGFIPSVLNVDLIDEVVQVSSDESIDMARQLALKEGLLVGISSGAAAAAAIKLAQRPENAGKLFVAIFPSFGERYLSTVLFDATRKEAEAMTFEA
T2 sequence (P47998 whole entry): as the sequence (P47998 whole entry, one chain of several) above

Row | Compound | FP % inhibition [1] [%] | IC50 [1] [µM] | Kd [2] [µM] | inhibition at 50 µM [3] [%] | direct binding to AtOASS by ITC (in vitro screening of purchased virtual hits) ([2]; result in words)
1 | O=C(O)c1ccccc1NS(=O)(=O)c1cnc(-c2ccccc2)s1 [PJL-83] | 17 | 74 | 9.9 | 0 | 
2 | CCc1ccc(C(=O)O)c(NS(=O)(=O)c2cnc(-c3ccc(F)cc3)s2)c1 [PJL-122] | 25 |  |  |  | 
3 | CC(C)Cc1ccc(-c2csc(NC(=O)c3ccccc3-c3ccccc3C(=O)O)n2)cc1 [PJL-108] | 47 | 4.7 |  | 17 | 
4 | Nc1cc(F)ccc1-c1csc(NC(=O)c2ccccc2-c2ccccc2C(=O)O)n1 [PJL-111] | 45 |  |  | 66 | 
5 | CC(C)CNC(=O)c1cccc(NC(=O)c2ccccc2-c2ccccc2C(=O)O)c1 [PJS-120] |  |  |  |  | showed direct binding to AtOASS by ITC
6 | O=C(O)c1cc2c(c(S(=O)(=O)Nc3ccc(OCc4ccccn4)c(Cl)c3)c1)CCC2 [PJS-39] | 14 | 72 | 7.5 | 2.3 | 
7 | O=C(O)c1ccc(O)cc1NS(=O)(=O)c1cnc(-c2ccccc2)o1 [PJL-82] | 11 | 150 |  | 0 | 
8 | O=C(O)c1ccc(Cl)c(S(=O)(=O)Nc2cccc(C(=O)Nc3cccc(C(F)(F)F)c3)c2)c1 [PJS-227] | 18 | 54.2 |  | 39 | 
9 | CCn1nnc(-c2ccc(O)c(NC(=O)Cc3ccccc3C(=O)O)c2)n1 [PJL-88] | 10 | 80 |  | 0 | 
10 | COc1ccccc1-n1cc(S(=O)(=O)Nc2ccc(F)cc2C(=O)O)cn1 [PJL-85] | 15 | 111 |  | 0 | 
11 | COc1ccc(C(=O)O)c(-c2cc(N)ccc2C(=O)Nc2nc(-c3ccc(Cl)cc3Cl)cs2)c1 [PJL-133] | 48 | 7.6 |  |  | 
12 | CCc1nnc(-c2ccc(O)c(NC(=O)Cc3ccccc3C(=O)O)c2)o1 [PJL-92] | 13 | 122 |  | 0 | 
13 | O=C(O)c1ccccc1-c1cccnc1C(=O)Nc1nc(-c2ccc(Cl)cc2Cl)cs1 [PJL-115] | 36 | 12 |  | 96 | 
14 | COc1ccc(C(=O)O)c(NS(=O)(=O)c2cnn(-c3ccc(F)cc3)c2)c1 [PJL-121] | 4.6 | 322 |  | 72 | 
15 | Cc1cn(-c2ccccc2)nc1NS(=O)(=O)c1cc(C(=O)O)cc2c1CCC2 [PJL-2] | 11 | 236 |  | 70 | 
16 | CN(C)c1ncn(-c2cccc(NS(=O)(=O)c3cc(C(=O)O)cc4c3CCC4)c2)n1 [PJL-74] | 26 | 22 |  | 9 | 
17 | O=C(O)c1cc(F)ccc1NS(=O)(=O)c1cnn(-c2ccccc2F)c1 [PJL-5] | 16 | 148 |  | 56 | 
18 | COc1cc(NS(=O)(=O)c2cnc(-c3ccc(F)cc3)s2)c(C(=O)O)cc1F [PJL-123] | 16 |  |  |  | 
19 | CC(C)(C)NC(=O)c1cccc(NC(=O)c2ccccc2-c2ccccc2C(=O)O)c1 [PJL-59] | 19 | 58 |  | 6 | 

Row | Compound | FP % inhibition [1] [%] | IC50 [1] [µM] | Kd [2] [µM] | inhibition at 50 µM [3] [%] | direct binding to AtOASS by ITC (in vitro screening of purchased virtual hits) ([2]; result in words)
20 | O=C(O)c1ccccc1-c1cc(O)ccc1C(=O)Nc1nc(-c2ccc(Cl)cc2Cl)cs1 [PJL-130] | 52 | 3.4 |  | 93 | 
21 | O=C(O)c1ccccc1-c1ccc(O)cc1C(=O)Nc1nc(-c2ccc(Cl)cc2Cl)cs1 [PJL-132] | 51 | 4.5 |  |  | 
22 | CC(C)c1n[nH]c(-c2ccc(NC(=O)Cc3ccccc3C(=O)O)cc2)n1 [PJL-95] | 27 | 22 |  | 10 | 
23 | O=C(O)c1cc2c(c(S(=O)(=O)Nc3cccc(C(=O)Nc4ccccn4)c3)c1)CCC2 [PJL-70] | 15 |  |  | 0 | 
24 | O=C(O)c1ccccc1-c1ccccc1C(=O)Nc1cc(-c2ccc(Cl)cc2Cl)c[nH]c1=O [PJL-120] | 14 | 115 |  | 88 | 
25 | O=C(O)c1cc(NS(=S)(=S)c2cnc(-c3ccc(F)cc3)s2)c(F)cc1F [PJL-27] | 11 | 188 |  | 25 | 
26 | COc1ccc(C(=O)O)c(NS(=O)(=O)c2cnn(-c3cccc(C(F)(F)F)c3)c2)c1 [PJL-114] | 17 | 41 | 12 |  | 
27 | O=C(O)c1cc(F)ccc1-c1ccccc1C(=O)Nc1nc(-c2ccc(Cl)cc2Cl)cs1 [PJL-119] | 52 | 8.56 |  | 100 | 
28 | O=C(O)c1cc2c(c(S(=O)(=O)Nc3cccc(-c4noc(C5CCCO5)n4)c3)c1)CCC2 (stereo not shown) [PJL-69] | 21 |  | 8.12 |  | 
29 | Cc1cc2cc(NS(=O)(=O)c3cc(C(=O)O)cc4c3CCC4)ccc2[nH]1 [PJL-22] | 13 | 206 |  | 0 | 
30 | CC(=O)Nc1ccc(C(=O)Nc2nc(-c3ccc(Cl)cc3Cl)cs2)c(-c2ccccc2C(=O)O)c1 [PJL-129] | 43 | 11 |  |  | 
31 | O=C(Cc1ccccc1C(=O)O)Nc1cc(C(=O)Nc2cccnc2)ccc1F [PJL-91] | 13 | 55 |  |  | 
32 | COc1ccc(NS(=O)(=O)c2cc(C(=O)O)cc3c2CCC3)cc1Cl [PJL-21] | 14 | 149 |  | 0 | 
33 | CC(C)c1n[nH]c(-c2cccc(NC(=O)Cc3ccccc3C(=O)O)c2)n1 [PJL-96] | 22 | 43 |  | 2 | 
34 | Cc1ccnc(-n2cc(S(=O)(=O)Nc3ccc(F)cc3C(=O)O)cn2)c1 [PJL-86] | 36 | 20 |  | 0 | 
35 | COc1ccc(-c2csc(NC(=O)c3ccc(C)cc3-c3ccccc3C(=O)O)n2)cc1 [PJL-125] | 56 | 3.4 |  |  | 
36 | O=C(O)c1ccccc1-c1cc(CO)ccc1C(=O)Nc1nc(-c2ccc(Cl)cc2Cl)cs1 [PJL-131] | 42 | 9.3 |  |  | 
37 | COc1ccc(-c2csc(NC(=O)c3cccc(C)c3-c3ccccc3C(=O)O)n2)cc1 [PJL-128] | 41 | 18.5 |  |  | 
